Results on four compounds are retold here after patent US11963966B2, “Compositions and methods for treating ovarian tumors” (Dana-Farber Cancer Institute, Inc., priority 2017, dated 2024).

Structures are written as SMILES. pEC50: −log10 of the molar value.

Experiment [1] has as its system platinum-resistant ex vivo spheroid cultures of patients DF3266, DF3288, DF3291. Description: Drug sensitivity testing with the growth in low attachment (GILA) assay. The class given is cell-based. The conditions noted are these: for Sensitivity of spheroid cultures: all spheroid cultures, similar dose range, cisplatin excepted in DF3266 and DF3288. As to the method: (§1) FIG. 6A-FIG. 6G are a series of graphs and images depicting the impact of JAK/STAT-inhibition on spheroid formation, invasion and killing ex vivo and in vitro. FIG. 6A a histogram (FIG. 11B), showing drug screening with 14 compounds (at 1 μM) inhibiting the JAK/STAT pathway in OVACR4. Relative viability compared to DMSO control measured by CTG. […] The same library was screened in 2D-cultures of OVACR4 (FIG. 11A), and 2D-cultures of OVACR8 (FIG. 11C) and 3D-cultures of OVACR8 (FIG. 11D). FIG. 6B is a series of plots showing drug sensitivity testing using the GILA assay in platinum-resistant ex vivo spheroid cultures of patients DF3291 and DF3266, The X-axis indicates the log μM concentration of drugs indicated in the legend, Y-axis indicates the percentage of luminescence signal as indicator for viability relatively to DMSO treated cells. In both patients, half maximal effective concentration (EC50) were ˜100 nM and ˜10 nM, respectively, while other drugs routinely used for the treatment of (platinum-resistant) ovarian cancer had EC50>10 μM. FIG. 6C is a series of images of microscopic analysis of spheroids with different drug treatments to highlight the morphologic changes during therapy with drugs listed. Inhibition of JAK/STAT pathway disrupts ex vivo spheroid cultures. […] The X-axis indicates established ovarian cancer cell line ID. Y-axis indicates the relative number of formed spheroids when treated with either JSI-124 or carboplatin compared to untreated parental controls. Error bars indicate the standard deviation from the mean number of spheroids. […] JAK/STAT inhibition prevents spheroid formation. […] The Y-axis indicates the clearance ability (using arbitrary units). 20 spheroids clusters were analyzed for each iteration. Data is shown as mean (horizontal bar), interquartile range (box), and minimum and maximum (whiskers). Statistical analysis was performed using 1-way analysis of variance (ANOVA) and post hoc Tukey-Kramer **P<0.05. […] FIG. 6G is a histogram showing the inhibition of the JAK/STAT pathway.
Single-cell RNA-sequencing was performed on these platinum-resistant patient samples, using the growth in low attachment (GILA) assay (Rotem et al., 2015 Proc. Natl. Acad. Sci. U.S.A, 112:5708-5713; B. Izar and A. Rotem, 2016 Curr. Protoc. Mol. Biol., 116:28.8.1-28.8.12). […] In contrast, all spheroid cultures were resistant to carboplatin, cisplatin, olaparib and paclitaxel at a similar dose range, with the exception of cisplatin with an EC50 of ˜10 μM in patients DF3266 and DF3288.

For experiment [2], the system named is established ovarian cancer cell lines (OVCAR4, OVCAR8, OVASHO, TYKNU, Kuramachi). Nature of the experiment: Spheroid formation in low adherent surface culture. The class given is cell-based. The conditions noted are these: same treatment doses as JSI-124. As to the method:
as §1, with “pathway. […]” for “pathway.”

Experiment [3] relates to PDX models DF20, DF68, DF101. Description: Carboplatin treatment of ovarian cancer PDX models, tumor volume and BLI. Type of experiment: in vivo, mice. Particulars: followed by subsequent tumor outgrowth. As to the method:
FIG. 4A-FIG. 4E are a series of graphs depicting comparisons of expression profiles across patient-derived xenograft (PDX) models before and after recurrence. […] FIG. 4A is a plot of tumor burden of PDX model DF20. PDX model DF20 response to carboplatin was assessed. Triangles indicate vehicle mice, squares indicate relapsed mice, and asterisks indicates MRD animals. MRD and relapsed tumors were treated with three cycles of carboplatin and harvested for single-cell RNA-sequencing at the last indicated time point in this graph. FIG. 4B is a heatmap showing the similarities and clustering of average expression profiles for each of the samples corresponding to three PDX models, with samples collected before treatments (vehicle), MRD and full relapse for each of the models. FIG. 4C is a plot of expression of highly-abundant transcripts in single-cells indicate disproportionally high expression of key nodes of the JAK/STAT pathway, including STAT2 and STAT3, and others.
Next, platinum-resistance was modeled using PDX-models. […] Single-cells were harvested for sequencing from untreated animals (vehicle) and the carboplatin-treated animals were monitored for tumor regression and relapse. […] Accordingly, gene sets were detected which were consistently altered across two or three samples of MRD (FIG. 4D) or relapse (FIG. 4E), and contribute to drug resistance or tumor relapse. […]

On to `CC(=O)O[C@H]1C(=O)[C@@]2(C)[C@H]([C@H](OC(=O)c3ccccc3)[C@]3(O)C[C@H](OC(=O)[C@H](O)[C@@H](NC(=O)c4ccccc4)c4ccccc4)C(C)=C1C3(C)C)[C@]1(OC(C)=O)CO[C@@H]1C[C@@H]2O` [paclitaxel], for which, in experiment [1], the “Sensitivity of spheroid cultures” value is “resistant”.

Take `N.N.[Cl][Pt][Cl]` [cisplatin]: the “Sensitivity of spheroid cultures” value in experiment [1] is reported as “resistant”. In addition, in experiment [1] (patients DF3266 and DF3288, read-out: EC50), the pEC50 is about 5.00.

For the compound `N.N.O=C([O-])C1(C(=O)[O-])CCC1.[Pt+2]` [carboplatin], in experiment [1], the “Sensitivity of spheroid cultures” value is recorded as “resistant”. Further, in experiment [2], the “Effect on spheroids formation” value is reported as “modest to no effects”. Besides, in experiment [3], the “Tumor response (tumor volume, BLI signal)” value was “brisk response”.

As to `O=C(c1cc(Cc2n[nH]c(=O)c3ccccc23)ccc1F)N1CCN(C(=O)C2CC2)CC1` [olaparib], the “Sensitivity of spheroid cultures” value in experiment [1] is reported as “resistant”.

One may read the pEC50 as −log10 of the EC50, conventionally taken in molar units.
